Usually melting point stands for the temperature, or range, at which the solid turns liquid.

Series [1] relates to rats. The conditions noted are these: cited from earlier work.
Series [2] concerns DA receptors. The conditions noted are these: cited from earlier work.
The subject of series [3] is Dopa accumulation. Particulars: normal animals, after NSD1015; cited from earlier work.
The test system of series [4] is DA metabolites DOPAC and HVA. The conditions noted are these: no NSD1015 treatment; cited from earlier work.
For series [5], the system named is rodents. Particulars: cited from earlier work; for Dopaminergic stereotypic behavioral effects (sniffing, rearing): gross behavioral observations, certain dosages, rodents; for Locomotor activity: photocell motility meters.
For series [6], the target named is D3 dopamine receptor (Rattus norvegicus, UniProt P19020). Particulars: among screened classical and atypical neuroleptics; cited from earlier work.
Sequence of D3 dopamine receptor (P19020 whole entry): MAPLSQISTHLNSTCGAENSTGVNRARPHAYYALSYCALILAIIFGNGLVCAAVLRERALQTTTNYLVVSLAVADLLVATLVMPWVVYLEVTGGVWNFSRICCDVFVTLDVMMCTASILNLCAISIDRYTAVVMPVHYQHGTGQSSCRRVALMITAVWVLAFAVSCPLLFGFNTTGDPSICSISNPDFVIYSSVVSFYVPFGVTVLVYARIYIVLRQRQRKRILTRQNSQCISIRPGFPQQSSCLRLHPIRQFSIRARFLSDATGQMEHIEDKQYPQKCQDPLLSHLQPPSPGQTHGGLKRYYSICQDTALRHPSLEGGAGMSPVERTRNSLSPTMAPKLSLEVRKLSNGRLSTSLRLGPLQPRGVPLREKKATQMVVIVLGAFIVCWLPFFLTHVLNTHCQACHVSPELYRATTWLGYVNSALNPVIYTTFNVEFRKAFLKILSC
For series [7], the system named is rats. Briefly: Behavioral testing in rats of GMC6650. In kind it is in vivo, rat. The procedure: Behavioral Testing in Rats of Compound GMC6650 (Example 6)
One rat, weighing about 350 g, was injected SC in the neck with 1 μmol/kg of GMC6650. Another rat, weighing about 350 g, was injected PO with the same dose. The drug (3.4 mg) was initially dissolved in: ethanol (50 μL), 1 M acetic acid (2 drops), and water (1.4 mL), corresponding to 15 μmol per 1.5 mL, which means a concentration of 10 μmol/mL. By first diluting that solution 10 times and injecting 0.35 mL, the given dose will be 1 μmol/kgμmol/kg. This goes for both of rats.
Stereotypy was intense and was registered for several hours by visual inspection. […] The next morning, the SC rat was still active, while the PO rat was resting. Duration of action was thus ≧10 h for both sc and po administration of 1 μmol/kg.

The mark [8] stands for this setting: 1 μmol/kg, SC or PO (same pattern in both rats).

Each structure is given as a SMILES string. Structures can show the parent of a compound that is named as a salt. Bounds are passed on as bounds.

Consider `CCCN(CCC)CCC1=CC(=O)CCC1` (as salt: hydrochloride), for which the melting point is 95 to 97 °C.
With `CCCN1CCCC(C2=CC(=O)CCC2)C1` (stereo not shown) (as salt: hydrochloride), the melting point is 184 to 185 °C.
As to `CCN(CC)CCC1=CC(=O)CCC1` (as salt: hydrochloride), the melting point was 148 to 149 °C.
As to `CCCN(CCC1=CC(=O)CCC1)CCc1ccccc1` (as salt: hydrochloride), the melting point was 110 to 112 °C.
Regarding `CCCN(CCC)C1CCC2=C(CCCC2=O)C1` (racemic) [(±)-5-keto-DPATT, (±)-5-keto-2-N,N-di-n-propylamino-tetrahydrotetralin], in series [1], the “Dopaminergic effects in vivo” value is recorded as “does possess dopaminergic effects”. Moreover, in series [2], the “Affinity to DA receptors (in vitro binding)” value is on record as “no affinity”.
Regarding `CCCN[C@@H]1CCc2c(OC)cccc2[C@@H]1C` (relative stereo) [(+)-AJ76, (+)-cis-1S,2R-5-methoxy-1-methyl-2-(N-n-propylamino)tetralin], in series [3], the Dopa accumulation result is “raise the Dopa accumulation”. Further, the “Levels of DA metabolites DOPAC and HVA” value in series [4] is “raise the levels”. In series [5], the “Dopaminergic stereotypic behavioral effects (sniffing, rearing)” value was “weak” and the Locomotor activity result was “increase the locomotor activity”. The “Preference for the D3 site” value in series [6] is given as “highest preference for the D3 site”.
Turning to `CCCN(CCC)[C@@H]1CCc2c(OC)cccc2[C@@H]1C` (relative stereo) [(+)-UH232, (+)-cis-1S,2R-5-methoxy-1-methyl-2-(N,N-di-n-propylamino)tetralin], the Dopa accumulation entry in series [3] is “raise the Dopa accumulation”. For the same molecule, in series [4], the “Levels of DA metabolites DOPAC and HVA” value is listed as “raise the levels”. In series [5], the “Dopaminergic stereotypic behavioral effects (sniffing, rearing)” value is “weak” and the Locomotor activity result is recorded as “increase the locomotor activity”. In addition, in series [6], the “Preference for the D3 site” value is on record as “highest preference for the D3 site”.
In the case of `CCCN1CCC[C@@H]2CC3=C(CCCC3=O)C[C@H]21` (relative stereo) [GMC6650, 1-Propyl-trans-2,3,4,4a,5,7,8,9,10,10a-decahydrobenzo[g]quinolin-6-one], the “Activity the next morning” value in series [7] (1 μmol/kg PO) is on record as “resting”. Moreover, the “Activity the next morning” value in series [7] (1 μmol/kg SC) is “still active”. Moreover, the Duration of action in series [7] (1 μmol/kg po) is listed as not below 10 h. The molecule further had a Duration of action in series [7] (1 μmol/kg sc) not below 10 h. The “Stereotypy after 10 hours” value in series [7] (1 μmol/kg, SC and PO rat, 10 hours after dosing) is “still showing signs of stereotypy”. For the same molecule, in series [7] (setting [8]), the “Time until clear signs of stereotypy” value is 30 min; the “Time until obvious dopaminergic effects (chewing, sniffing, licking, penile grooming, grooming)” value stood at 15 min; the “Time until rats became sedated, closing or partly closing their eyes” value is 10 min. Further, the “Stereotypy, visual inspection” value in series [7] (1 μmol/kg, SC or PO, registered for several hours) was “intense”.

Values taken from patent USRE43244E1, “Phenylethylamines and condensed rings variants as prodrugs of catecholamines, and their use” (priority 2001, dated 2012).
